Source: patent US10259808B2 (Genentech, Inc., priority 2015, dated 2019)

Target: T1, RORc ligand binding domain (Homo sapiens, UniProt P51449)
T1 sequence (P51449 269-508 limits assumed): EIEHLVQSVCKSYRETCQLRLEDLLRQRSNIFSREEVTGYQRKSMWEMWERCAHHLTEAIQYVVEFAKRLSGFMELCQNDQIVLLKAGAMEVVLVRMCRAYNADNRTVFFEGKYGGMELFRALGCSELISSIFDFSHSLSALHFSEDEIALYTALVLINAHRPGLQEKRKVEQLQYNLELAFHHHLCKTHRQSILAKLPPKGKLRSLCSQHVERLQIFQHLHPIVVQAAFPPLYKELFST
Experiment: In vitro RORc ligand binding assay (25-[3H]hydroxycholesterol displacement)
Conditions: not given

| Molecule | IC50 [nM] |
| --- | --- |
| C[C@H]1CC[C@H](c2ccccc2)S(=O)(=O)N1Cc1cc(F)c([C@]2(c3n[nH]c(=O)o3)C[C@H](CC#N)C2)cc1F [Example 153, trans 2-[3-[2,5-difluoro-4-[[(3S,6R)-3-methyl-1,1-dioxo-6-phenyl-thiazinan-2-yl]methyl]phenyl]-3-(2-oxo-3H-1,3,4-oxadiazol-5-yl)cyclobutyl]acetonitrile] | 8.7 |
| CO[C@H]1C[C@@](c2n[nH]c(=O)o2)(c2cc(F)c(CN3[C@@H](C)CC[C@H](c4ccccc4)S3(=O)=O)cc2F)C1 [Example 154, trans 5-[1-[2,5-difluoro-4-[[(3S,6R)-3-methyl-1,1-dioxo-6-phenyl-thiazinan-2-yl]methyl]phenyl]-3-methoxy-cyclobutyl]-3H-1,3,4-oxadiazol-2-one] | 6.2 |
| CO[C@H]1C[C@](c2n[nH]c(=O)o2)(c2cc(F)c(CN3[C@@H](C)CC[C@H](c4ccccc4)S3(=O)=O)cc2F)C1 [Example 155, cis 5-[1-[2,5-difluoro-4-[[(3S,6R)-3-methyl-1,1-dioxo-6-phenyl-thiazinan-2-yl]methyl]phenyl]-3-methoxy-cyclobutyl]-3H-1,3,4-oxadiazol-2-one] | 11.3 |
| CO[C@]1(C)C[C@](c2n[nH]c(=O)o2)(c2cc(F)c(CN3[C@@H](C)CC[C@H](c4ccccc4)S3(=O)=O)cc2F)C1 [Example 156, trans 5-[1-[2,5-difluoro-4-[[(3S,6R)-3-methyl-1,1-dioxo-6-phenyl-thiazinan-2-yl]methyl]phenyl]-3-methoxy-3-methyl-cyclobutyl]-3H-1,3,4-oxadiazol-2-one] | 4 |
| CO[C@]1(C)C[C@@](c2n[nH]c(=O)o2)(c2cc(F)c(CN3[C@@H](C)CC[C@H](c4ccccc4)S3(=O)=O)cc2F)C1 [Example 157, cis 5-[1-[2,5-difluoro-4-[[(3S,6R)-3-methyl-1,1-dioxo-6-phenyl-thiazinan-2-yl]methyl]phenyl]-3-methoxy-3-methyl-cyclobutyl]-3H-1,3,4-oxadiazol-2-one] | 7.4 |
| C[C@H]1CC[C@H](c2ccccc2)S(=O)(=O)N1Cc1cc(F)c([C@]2(c3c[nH]c(=O)o3)C[C@](C)(O)C2)cc1F [Example 158, 5-[1-[2,5-difluoro-4-[[(3S,6R)-3-methyl-1,1-dioxo-6-phenyl-thiazinan-2-yl]methyl]phenyl]-3-hydroxy-3-methyl-cyclobutyl]-3H-oxazol-2-one] | 3.2 |
| C[C@H]1CC[C@H](c2ccccc2)S(=O)(=O)N1Cc1cc(F)c([C@]2(c3cn(C)c(=O)o3)C[C@](C)(O)C2)cc1F [Example 159, 5-[1-[2,5-difluoro-4-[[(3S,6R)-3-methyl-1,1-dioxo-6-phenyl-thiazinan-2-yl]methyl]phenyl]-3-hydroxy-3-methyl-cyclobutyl]-3-methyl-oxazol-2-one] | 2.8 |

Next, values leading:

| IC50 [nM] | Molecule |
| --- | --- |
| 13.6 | Cc1[nH]c(=O)oc1[C@]1(c2cc(F)c(CN3[C@@H](C)CC[C@H](c4ccccc4)S3(=O)=O)cc2F)C[C@@](C)(O)C1 [Example 160, 5-[1-[2,5-difluoro-4-[[(3S,6R)-3-methyl-1,1-dioxo-6-phenyl-thiazinan-2-yl]methyl]phenyl]-3-hydroxy-3-methyl-cyclobutyl]-4-methyl-3H-oxazol-2-one] |
| 5.2 | C[C@H]1CC[C@H](c2ccccc2)S(=O)(=O)N1Cc1cc(F)c([C@]2(c3cc(=O)n(C)o3)C[C@](C)(O)C2)cc1F [Example 161, 5-[1-[2,5-difluoro-4-[[(3S,6R)-3-methyl-1,1-dioxo-6-phenyl-thiazinan-2-yl]methyl]phenyl]-3-hydroxy-3-methyl-cyclobutyl]-2-methyl-isoxazol-3-one] |
| 3.6 | COc1cc([C@]2(c3cc(F)c(CN4[C@@H](C)CC[C@H](c5ccccc5)S4(=O)=O)cc3F)C[C@@](C)(O)C2)on1 [Example 162, 3-[2,5-difluoro-4-[[(3S,6R)-3-methyl-1,1-dioxo-6-phenyl-thiazinan-2-yl]methyl]phenyl]-3-(3-methoxyisoxazol-5-yl)-1-methyl-cyclobutanol] |
| 6.1 | C=C[C@]1(O)C[C@@](c2c[nH]c(=O)o2)(c2cc(F)c(CN3[C@@H](C)CC[C@H](c4ccccc4)S3(=O)=O)cc2F)C1 [Example 164, 5-[1-[2,5-difluoro-4-[[(3S,6R)-3-methyl-1,1-dioxo-6-phenyl-thiazinan-2-yl]methyl]phenyl]-3-hydroxy-3-vinyl-cyclobutyl]-3H-oxazol-2-one] |
| 6.7 | C[C@H]1CC[C@H](c2ccccc2)S(=O)(=O)N1Cc1cc(F)c([C@]2(c3c[nH]c(=O)o3)C[C@@](O)(C3CC3)C2)cc1F [Example 165, 5-[3-cyclopropyl-1-[2,5-difluoro-4-[[(3S,6R)-3-methyl-1,1-dioxo-6-phenyl-thiazinan-2-yl]methyl]phenyl]-3-hydroxy-cyclobutyl]-3H-oxazol-2-one] |
| 47.4 | C[C@H]1CC[C@H](c2ccccc2)S(=O)(=O)N1Cc1cc(F)c(C2(C(=O)NCC3COC3)CCOCC2)cc1F [Example 346, 4-[2,5-difluoro-4-[[(3S,6R)-3-methyl-1,1-dioxo-6-phenyl-thiazinan-2-yl]methyl]phenyl]-N-(oxetan-3-ylmethyl)tetrahydropyran-4-carboxamide] |

Same assay, conditions: IC50 values for RORc

| Molecule | IC50 [nM] |
| --- | --- |
| cis 5-[1-[2,5-difluoro-4-[[(3S,6R)-3- methyl-1,1-dioxo-6-phenyl-thiazinan-2- yl]methyl]phenyl]-3-hydroxy-3- (trifluoromethyl)cyclobutyl]-3H-1,3,4- oxadiazol-2-one [Example 148] | 11 |
